Measured values as given in US9932637B2, “Genetic polymorphisms associated with cardiovascular disorders and drug response, methods of detection and uses thereof” (CELERA CORPORATION, priority 2003, dated 2018).

Test system: patients with prior myocardial infarction (CARE study)
Experiment: CARE: association of SNPs with pravastatin treatment in cardiovascular events prevention (logistic regression, odds ratio pravastatin vs placebo by genotype; Table 8)
Assay type: in vivo, human
Conditions: for Any Report of Stroke Prior to or During CARE, n/total (%) / Cardiovascular Mortality, n/total (%) / Fatal Atherosclerotic Cardiovascular Disease, n/total (%) / Fatal Coronary Heart Disease, n/total (%) / Fatal/Non-fatal Atherosclerotic CV Disease, n/total (%) / Total Coronary Heart Disease Events, n/total (%) / Total Mortality, n/total (%) / Hosp. for Cardiovascular Disease, n/total (%) / Total Cardiovascular Disease Events, n/total (%) / Fatal/Non-fatal MI (def & prob), n/total (%): Prava arm; for Odds ratio pravastatin vs placebo: All Patients
Text: In order to identify genetic markers associated with acute coronary events (e.g. MI, stroke, unstable angina, congestive heart failure, etc.) or response to statin treatment for the prevention of coronary events, samples from the Cholesterol and Recurrent Events (CARE) study (a randomized multicentral double-blinded trial on secondary prevention of acute coronary events with pravastatin) (Sacks et al., 1991, Am. J. Cardiol. 68: 1436-1446) were genotyped. A well-documented myocardial infarction (MI) was one of the enrollment criteria for entry into the CARE study. Patients were enrolled in the CARE trial from 80 participating study centers. […] Patients were randomized to receive either 40 mg of pravastatin once daily or a matching placebo. The primary endpoint of the trial was death from coronary heart disease and the median duration of follow-up was 5.0 years (range, 4.0 to 6.2 years). […] Secondary endpoints of other related cardiovascular or metabolic disease events, and changes in clinical variables were also recorded in pravastatin-treated and placebo groups. All individuals included in the study had signed a written informed consent form and the study protocol was approved by the respective Institutional Review Boards (IRBs).
For genotyping SNPs in CARE patient samples, DNA was extracted from blood samples using conventional DNA extraction methods such as the QIA-amp kit from Qiagen. Genotypes were obtained on an ABI PRISM® 7900HT Sequence Detection PCR system (Applied Biosystems, Foster City, Calif.) by kinetic allele-specific PCR, similar to the method described by Germer et al. (Germer S., Holland M. J., Higuchi R. 2000, Genome Res. 10: 258-266).
Statistical analysis for association of SNPs with pravastatin treatment in cardiovascular events prevention (Table 8) was carried out using an overall logistic regression model that included an intercept, a parameter for the effect of a genotype containing two rare alleles versus a genotype containing no rare alleles, a parameter for the effect of a genotype containing one rare allele versus a genotype containing no rare alleles, a parameter for the effect of use of pravastatin versus the use of placebo, and parameters for the interaction effects between SNP genotypes and pravastatin use. The test of the overall model is a chi-square test with two degrees of freedom for analyses containing all three genotypes, and one degree of freedom for analyses containing two genotypes.
Effect sizes were estimated through odds ratios (pravastatin group versus placebo) for carriers of each genotype (groups of 0, 1, and 2 minor allele carriers). The effect was considered to be significant if p-value for testing whether any of the interactions between SNP genotypes and pravastatin use were <0.05. […] Odds ratios less than one indicate that the specific SNP allele has a protective effect and odds ratios greater than one indicate that the specific SNP allele has an adverse effect.

[1] = TGFB1 hCV8708473, All Patients, 1 Rare Allele
[2] = TGFB1 hCV8708473, All Patients, 2 Rare Alleles
[3] = TGFB1 hCV22272997, All Patients, 0 Rare Alleles
[4] = TGFB1 hCV22272997, All Patients, 1 Rare Allele
[5] = TGFB1 hCV22272997, All Patients, 2 Rare Alleles
[6] = TLR5 hCV15871020, All Patients, 0 Rare Alleles
[7] = TLR5 hCV15871020, All Patients, 1 Rare Allele
[8] = TLR5 hCV15871020, All Patients, 2 Rare Alleles
[9] = TLR6 hCV1180648, All Patients, 0 Rare Alleles
[10] = TLR6 hCV1180648, All Patients, 1 Rare Allele
[11] = TLR6 hCV1180648, All Patients, 2 Rare Alleles
[12] = TNF hCV7514879, All Patients, 0 Rare Alleles
[13] = TNF hCV7514879, All Patients, 1 Rare Allele
[14] = TNF hCV7514879, All Patients, 2 Rare Alleles
[15] = VEGF hCV791476, All Patients, 0 Rare Alleles
[16] = VEGF hCV791476, All Patients, 1 Rare Allele
[17] = VEGF hCV791476, All Patients, 2 Rare Alleles

CC[C@H](C)C(=O)O[C@H]1C[C@H](O)C=C2C=C[C@H](C)[C@H](CC[C@@H](O)C[C@@H](O)CC(=O)O)[C@H]21 [pravastatin]
Any Report of Stroke Prior to or During CARE, n/total (%) [1]: (3.8%)
Cardiovascular Mortality, n/total (%) [1]: (1.7%)
Fatal Atherosclerotic Cardiovascular Disease, n/total (%) [1]: (1.7%)
Fatal Coronary Heart Disease, n/total (%) [1]: (1.2%)
Fatal/Non-fatal Atherosclerotic CV Disease, n/total (%) [1]: (27.9%)
Total Coronary Heart Disease Events, n/total (%) [1]: (23.9%)
Total Mortality, n/total (%) [1]: (3.8%)
Any Report of Stroke Prior to or During CARE, n/total (%) [2]: (3.7%)
Cardiovascular Mortality, n/total (%) [2]: (3.1%)
Fatal Atherosclerotic Cardiovascular Disease, n/total (%) [2]: (3.1%)
Fatal Coronary Heart Disease, n/total (%) [2]: (2.5%)
Fatal/Non-fatal Atherosclerotic CV Disease, n/total (%) [2]: (38.3%)
Total Coronary Heart Disease Events, n/total (%) [2]: (37.0%)
Total Mortality, n/total (%) [2]: (4.9%)
Odds ratio pravastatin vs placebo (TGFB1 hCV8708473, Any Report of Stroke Prior to or During CARE, 0 rare alleles): 1.35
Odds ratio pravastatin vs placebo (TGFB1 hCV8708473, Any Report of Stroke Prior to or During CARE, 1 rare allele): 0.68
Odds ratio pravastatin vs placebo (TGFB1 hCV8708473, Any Report of Stroke Prior to or During CARE, 2 rare alleles): 0.38
Odds ratio pravastatin vs placebo (TGFB1 hCV8708473, Cardiovascular Mortality, 0 rare alleles): 1.95
Odds ratio pravastatin vs placebo (TGFB1 hCV8708473, Cardiovascular Mortality, 1 rare allele): 0.30
Odds ratio pravastatin vs placebo (TGFB1 hCV8708473, Cardiovascular Mortality, 2 rare alleles): 0.48
Odds ratio pravastatin vs placebo (TGFB1 hCV8708473, Fatal Atherosclerotic Cardiovascular Disease, 0 rare alleles): 1.90
Odds ratio pravastatin vs placebo (TGFB1 hCV8708473, Fatal Atherosclerotic Cardiovascular Disease, 1 rare allele): 0.30
Odds ratio pravastatin vs placebo (TGFB1 hCV8708473, Fatal Atherosclerotic Cardiovascular Disease, 2 rare alleles): 0.48
Odds ratio pravastatin vs placebo (TGFB1 hCV8708473, Fatal Coronary Heart Disease, 0 rare alleles): 1.79
Odds ratio pravastatin vs placebo (TGFB1 hCV8708473, Fatal Coronary Heart Disease, 1 rare allele): 0.26
Odds ratio pravastatin vs placebo (TGFB1 hCV8708473, Fatal Coronary Heart Disease, 2 rare alleles): 0.49
Odds ratio pravastatin vs placebo (TGFB1 hCV8708473, Fatal/Non-fatal Atherosclerotic CV Disease, 0 rare alleles): 0.94
Odds ratio pravastatin vs placebo (TGFB1 hCV8708473, Fatal/Non-fatal Atherosclerotic CV Disease, 1 rare allele): 0.59
Odds ratio pravastatin vs placebo (TGFB1 hCV8708473, Fatal/Non-fatal Atherosclerotic CV Disease, 2 rare alleles): 0.81
Odds ratio pravastatin vs placebo (TGFB1 hCV8708473, Total Coronary Heart Disease Events, 0 rare alleles): 0.91
Odds ratio pravastatin vs placebo (TGFB1 hCV8708473, Total Coronary Heart Disease Events, 1 rare allele): 0.58
Odds ratio pravastatin vs placebo (TGFB1 hCV8708473, Total Coronary Heart Disease Events, 2 rare alleles): 1.00
Odds ratio pravastatin vs placebo (TGFB1 hCV8708473, Total Mortality, 0 rare alleles): 1.50
Odds ratio pravastatin vs placebo (TGFB1 hCV8708473, Total Mortality, 1 rare allele): 0.48
Odds ratio pravastatin vs placebo (TGFB1 hCV8708473, Total Mortality, 2 rare alleles): 0.65
Cardiovascular Mortality, n/total (%) [3]: (5.6%)
Fatal Atherosclerotic Cardiovascular Disease, n/total (%) [3]: (5.6%)
Fatal Coronary Heart Disease, n/total (%) [3]: (5.2%)
Total Coronary Heart Disease Events, n/total (%) [3]: (32.5%)
Total Mortality, n/total (%) [3]: (7.4%)
Cardiovascular Mortality, n/total (%) [4]: (2.5%)
Fatal Atherosclerotic Cardiovascular Disease, n/total (%) [4]: (2.4%)
Fatal Coronary Heart Disease, n/total (%) [4]: (2.0%)
Total Coronary Heart Disease Events, n/total (%) [4]: (25.0%)
Total Mortality, n/total (%) [4]: (4.6%)
Cardiovascular Mortality, n/total (%) [5]: (2.5%)
Fatal Atherosclerotic Cardiovascular Disease, n/total (%) [5]: (2.5%)
Fatal Coronary Heart Disease, n/total (%) [5]: (2.0%)
Total Coronary Heart Disease Events, n/total (%) [5]: (33.2%)
Total Mortality, n/total (%) [5]: (3.7%)
Fatal/Non-fatal Atherosclerotic CV Disease, n/total (%) [6]: (34.4%)
Hosp. for Cardiovascular Disease, n/total (%) [6]: (40.8%)
Total Cardiovascular Disease Events, n/total (%) [6]: (42.0%)
Total Coronary Heart Disease Events, n/total (%) [6]: (30.5%)
Fatal/Non-fatal Atherosclerotic CV Disease, n/total (%) [7]: (32.1%)
Hosp. for Cardiovascular Disease, n/total (%) [7]: (40.8%)
Total Cardiovascular Disease Events, n/total (%) [7]: (41.8%)
Total Coronary Heart Disease Events, n/total (%) [7]: (27.2%)
Fatal/Non-fatal Atherosclerotic CV Disease, n/total (%) [8]: (17.6%)
Hosp. for Cardiovascular Disease, n/total (%) [8]: (14.7%)
Total Cardiovascular Disease Events, n/total (%) [8]: (17.6%)
Total Coronary Heart Disease Events, n/total (%) [8]: (11.8%)
Odds ratio pravastatin vs placebo (TLR5 hCV15871020, Fatal/Non-fatal Atherosclerotic CV Disease, 0 rare alleles): 0.84
Odds ratio pravastatin vs placebo (TLR5 hCV15871020, Fatal/Non-fatal Atherosclerotic CV Disease, 1 rare allele): 0.68
Odds ratio pravastatin vs placebo (TLR5 hCV15871020, Fatal/Non-fatal Atherosclerotic CV Disease, 2 rare alleles): 0.14
Odds ratio pravastatin vs placebo (TLR5 hCV15871020, Hosp. for Cardiovascular Disease, 0 rare alleles): 0.81
Odds ratio pravastatin vs placebo (TLR5 hCV15871020, Hosp. for Cardiovascular Disease, 1 rare allele): 0.72
Odds ratio pravastatin vs placebo (TLR5 hCV15871020, Hosp. for Cardiovascular Disease, 2 rare alleles): 0.09
Odds ratio pravastatin vs placebo (TLR5 hCV15871020, Total Cardiovascular Disease Events, 0 rare alleles): 0.81
Odds ratio pravastatin vs placebo (TLR5 hCV15871020, Total Cardiovascular Disease Events, 1 rare allele): 0.70
Odds ratio pravastatin vs placebo (TLR5 hCV15871020, Total Cardiovascular Disease Events, 2 rare alleles): 0.10
Odds ratio pravastatin vs placebo (TLR5 hCV15871020, Total Coronary Heart Disease Events, 0 rare alleles): 0.86
Odds ratio pravastatin vs placebo (TLR5 hCV15871020, Total Coronary Heart Disease Events, 1 rare allele): 0.64
Odds ratio pravastatin vs placebo (TLR5 hCV15871020, Total Coronary Heart Disease Events, 2 rare alleles): 0.10
Cardiovascular Mortality, n/total (%) [9]: (3.5%)
Fatal Atherosclerotic Cardiovascular Disease, n/total (%) [9]: (3.5%)
Fatal Coronary Heart Disease, n/total (%) [9]: (3.3%)
Cardiovascular Mortality, n/total (%) [10]: (2.5%)
Fatal Atherosclerotic Cardiovascular Disease, n/total (%) [10]: (2.5%)
Fatal Coronary Heart Disease, n/total (%) [10]: (1.9%)
Cardiovascular Mortality, n/total (%) [11]: (6.9%)
Fatal Atherosclerotic Cardiovascular Disease, n/total (%) [11]: (6.5%)
Fatal Coronary Heart Disease, n/total (%) [11]: (6.2%)
Fatal/Non-fatal MI (def & prob), n/total (%) [12]: (10.5%)
Hosp. for Cardiovascular Disease, n/total (%) [12]: (40.9%)
Total Cardiovascular Disease Events, n/total (%) [12]: (42.4%)
Total Mortality, n/total (%) [12]: (6.0%)
Fatal/Non-fatal MI (def & prob), n/total (%) [13]: (7.7%)
Hosp. for Cardiovascular Disease, n/total (%) [13]: (38.9%)
Total Cardiovascular Disease Events, n/total (%) [13]: (39.4%)
Total Mortality, n/total (%) [13]: (4.7%)
Fatal/Non-fatal MI (def & prob), n/total (%) [14]: (7.1%)
Hosp. for Cardiovascular Disease, n/total (%) [14]: (35.7%)
Total Cardiovascular Disease Events, n/total (%) [14]: (35.7%)
Total Mortality, n/total (%) [14]: (3.6%)
Odds ratio pravastatin vs placebo (TNF hCV7514879, Fatal/Non-fatal MI (def & prob), 0 rare alleles): 0.80
Odds ratio pravastatin vs placebo (TNF hCV7514879, Fatal/Non-fatal MI (def & prob), 1 rare allele): 0.44
Odds ratio pravastatin vs placebo (TNF hCV7514879, Fatal/Non-fatal MI (def & prob), 2 rare alleles): 0.25
Odds ratio pravastatin vs placebo (TNF hCV7514879, Hosp. for Cardiovascular Disease, 0 rare alleles): 0.79
Odds ratio pravastatin vs placebo (TNF hCV7514879, Hosp. for Cardiovascular Disease, 1 rare allele): 0.76
Odds ratio pravastatin vs placebo (TNF hCV7514879, Hosp. for Cardiovascular Disease, 2 rare alleles): 0.20
Odds ratio pravastatin vs placebo (TNF hCV7514879, Total Cardiovascular Disease Events, 0 rare alleles): 0.79
Odds ratio pravastatin vs placebo (TNF hCV7514879, Total Cardiovascular Disease Events, 1 rare allele): 0.73
Odds ratio pravastatin vs placebo (TNF hCV7514879, Total Cardiovascular Disease Events, 2 rare alleles): 0.20
Odds ratio pravastatin vs placebo (TNF hCV7514879, Total Mortality, 0 rare alleles): 1.11
Odds ratio pravastatin vs placebo (TNF hCV7514879, Total Mortality, 1 rare allele): 0.57
Odds ratio pravastatin vs placebo (TNF hCV7514879, Total Mortality, 2 rare alleles): 0.19
Cardiovascular Mortality, n/total (%) [15]: (4.2%)
Fatal Atherosclerotic Cardiovascular Disease, n/total (%) [15]: (4.1%)
Cardiovascular Mortality, n/total (%) [16]: (2.4%)
Fatal Atherosclerotic Cardiovascular Disease, n/total (%) [16]: (2.4%)
Cardiovascular Mortality, n/total (%) [17]: (2.0%)
Fatal Atherosclerotic Cardiovascular Disease, n/total (%) [17]: (2.0%)
odds ratio, pravastatin group vs control group, adverse coronary event (hCV2741051, one rare allele): 0.43
odds ratio, stroke in the pravastatin treated group (hCV2741051, one rare allele): 0.21
odds ratio, pravastatin group vs control group, adverse coronary event (hCV2741051, two rare alleles): 0.26
odds ratio, stroke in the pravastatin treated group (hCV2741051, two rare alleles): 0.23
